Experimental data taken from PubChem BioAssay (NCI).
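Cultured in 96-well plates, cells were exposed to test compound for 48 hours across five concentrations. At the GI50, growth is halved. TGI marks complete inhibition of growth.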

tested on: OVCAR-5 ovarian; assay: NCI anticancer screen, dose series, 48 h

**Q.** CC[C@@]1(O)C(=O)OCc2c1cc1n(c2=O)Cc2c-1nc1cc(F)c(C)c3c1c2[C@@H](N)CC3 was tested. Which GI50 did it give?
**A.** The GI50 was 0.0201 µM.

**Q.** For Nc1ccc2nc3n(c2c1)C(=O)c1ccccc1-3, which TGI is on record?
**A.** The TGI was greater than 100 µM.

**Q.** Which results are given for Cn1cc(-c2ccc(-c3cncc(Cl)c3N3CCC4(CCNC4=O)CC3)cc2)cn1?
**A.** GI50: > 100 µM; TGI: > 100 µM

**Q.** With CC/C=C/C/C=C/C/C=C/C/C=C/C/C=C/C/C=C/CCC(=O)Nc1ccn([C@@H]2O[C@H](CO)[C@@H](O)C2(F)F)c(=O)n1 as the molecule, how does the GI50 read?
**A.** Its GI50 is 2.83 µM.

**Q.** And the TGI?
**A.** The TGI was greater than 60.8 µM.

**Q.** How did the GI50 turn out when C/C(=N\NC(=S)N1CC2CCC(CC2)C1)c1ccccn1 was run?
**A.** The GI50 was 0.0949 µM.

**Q.** And the TGI?
**A.** The TGI was 2.73 µM.

**Q.** With O=C(NCc1ccc(S(=O)(=O)c2cc(F)cc(F)c2)cc1)c1ccc2nccn2c1 as the molecule, how does the GI50 read?
**A.** Its GI50 is 0.331 µM.

**Q.** What about the TGI of the same molecule?
**A.** The TGI was greater than 100 µM.

**Q.** For NC(=S)N/N=C/c1cc(-c2cccc(N)c2)ccn1, which GI50 is on record?
**A.** The GI50 was 3.96 µM.

**Q.** And the TGI?
**A.** Its TGI is greater than 100 µM.

**Q.** For Cc1nn(C(=O)c2ccc(Cl)cc2)c2c1C(c1ccc(O)cc1)SC(N)=N2 (stereo not drawn), which TGI is on record?
**A.** Its TGI is greater than 10 µM.

tested on: A549 NSCLC; assay: NCI anticancer screen, dose series, 48 h

**Q.** Which GI50 does the source give for COc1ccc2c(Oc3ccc(NC(=O)c4c(C)n(CC(C)(C)O)n(-c5ccccc5)c4=O)nc3)ccnc2c1 here?
**A.** The GI50 was 20.3 µM.

**Q.** And the TGI?
**A.** Its TGI is greater than 100 µM.

**Q.** Which TGI does the source give for CC1C(=O)OC2CC[N+]3([O-])CC=C(COC(=O)C(C)(O)C1(C)O)C23 (stereo not drawn) here?
**A.** The TGI was greater than 100 µM.

**Q.** O=C(OCc1ccc2c(Cl)cc(Cl)c(O)c2n1)N1CCN(C(=O)c2cc3cc(F)ccc3[nH]2)CC1 was tested. Which GI50 did it give?
**A.** The GI50 was 7.03 µM.

**Q.** What about the TGI of the same molecule?
**A.** The TGI was greater than 100 µM.

**Q.** For COc1ccc(Cc2cnc(NC(=O)c3ccc4c(c3)OCCO4)s2)cc1, which GI50 is on record?
**A.** Its GI50 is 0.044 µM.

**Q.** And the TGI?
**A.** The TGI was greater than 100 µM.

**Q.** With COCOc1ccc(C2(O)Oc3cc(OCOC)ccc3C2C)c(O)c1 (stereo not drawn) as the molecule, how does the TGI read?
**A.** Its TGI is 31.9 µM.

**Q.** How did the GI50 turn out when C[C@H]1CCC/C=C/[C@@H]2C[C@H](O)C[C@H]2[C@H](O)[C@@H](SCC(O)CO)CC(=O)O1 (stereo partly drawn) was run?
**A.** Its GI50 is 34.4 µM.

**Q.** And the TGI?
**A.** Its TGI is greater than 100 µM.

**Q.** Which GI50 does the source give for C=CCN1CC2CON(C(=O)C(OC)(c3ccccc3)C(F)(F)F)C2C1C(C)C (stereo not drawn) here?
**A.** The GI50 was 34.6 µg/mL.

**Q.** Which results are given for CC[C@@]1(O)C(=O)OCc2c1cc1n(c2=O)Cc2c-1nc1cc(F)c(C)c3c1c2[C@@H](N)CC3?
**A.** GI50: < 0.01 µM; TGI: 1.15 µM

**Q.** How did the TGI turn out when Nc1ccc2nc3n(c2c1)C(=O)c1ccccc1-3 was run?
**A.** The TGI was greater than 100 µM.

**Q.** Which results are given for Cn1cc(-c2ccc(-c3cncc(Cl)c3N3CCC4(CCNC4=O)CC3)cc2)cn1?
**A.** GI50: 29 µM; TGI: > 100 µM

**Q.** With CC/C=C/C/C=C/C/C=C/C/C=C/C/C=C/C/C=C/CCC(=O)Nc1ccn([C@@H]2O[C@H](CO)[C@@H](O)C2(F)F)c(=O)n1 as the molecule, how does the GI50 read?
**A.** The GI50 was 0.0369 µM.

**Q.** What about the TGI of the same molecule?
**A.** Its TGI is 20.4 µM.

**Q.** For C/C(=N\NC(=S)N1CC2CCC(CC2)C1)c1ccccn1, which GI50 is on record?
**A.** The GI50 was 0.064 µM.

**Q.** What about the TGI of the same molecule?
**A.** Its TGI is 1.66 µM.

**Q.** O=C(NCc1ccc(S(=O)(=O)c2cc(F)cc(F)c2)cc1)c1ccc2nccn2c1 was tested. Which GI50 did it give?
**A.** Its GI50 is 9.59 µM.

**Q.** And the TGI?
**A.** Its TGI is greater than 100 µM.

**Q.** What does the source list for NC(=S)N/N=C/c1cc(-c2cccc(N)c2)ccn1?
**A.** GI50: 3.11 µM; TGI: > 51.3 µM

**Q.** Which TGI does the source give for Cc1nn(C(=O)c2ccc(Cl)cc2)c2c1C(c1ccc(O)cc1)SC(N)=N2 (stereo not drawn) here?
**A.** Its TGI is greater than 10 µM.

tested on: MCF7 breast; assay: NCI anticancer screen, dose series, 48 h

**Q.** With COc1ccc2c(Oc3ccc(NC(=O)c4c(C)n(CC(C)(C)O)n(-c5ccccc5)c4=O)nc3)ccnc2c1 as the molecule, how does the GI50 read?
**A.** The GI50 was 26.2 µM.

**Q.** And the TGI?
**A.** Its TGI is 97.7 µM.

**Q.** With CC1C(=O)OC2CC[N+]3([O-])CC=C(COC(=O)C(C)(O)C1(C)O)C23 (stereo not drawn) as the molecule, how does the TGI read?
**A.** Its TGI is greater than 100 µM.

**Q.** Which results are given for O=C(OCc1ccc2c(Cl)cc(Cl)c(O)c2n1)N1CCN(C(=O)c2cc3cc(F)ccc3[nH]2)CC1?
**A.** GI50: 0.404 µM; TGI: > 100 µM

**Q.** What does the source list for COc1ccc(Cc2cnc(NC(=O)c3ccc4c(c3)OCCO4)s2)cc1?
**A.** GI50: 0.0307 µM; TGI: > 100 µM

**Q.** COCOc1ccc(C2(O)Oc3cc(OCOC)ccc3C2C)c(O)c1 (stereo not drawn) was tested. Which TGI did it give?
**A.** Its TGI is 27.9 µM.

**Q.** What does the source list for C[C@H]1CCC/C=C/[C@@H]2C[C@H](O)C[C@H]2[C@H](O)[C@@H](SCC(O)CO)CC(=O)O1 (stereo partly drawn)?
**A.** GI50: 20.5 µM; TGI: 47.8 µM

**Q.** With C=CCN1CC2CON(C(=O)C(OC)(c3ccccc3)C(F)(F)F)C2C1C(C)C (stereo not drawn) as the molecule, how does the GI50 read?
**A.** Its GI50 is 26.2 µg/mL.

**Q.** And the TGI?
**A.** The TGI was 78.7 µg/mL.

**Q.** For CC[C@@]1(O)C(=O)OCc2c1cc1n(c2=O)Cc2c-1nc1cc(F)c(C)c3c1c2[C@@H](N)CC3, which GI50 is on record?
**A.** Its GI50 is less than 0.01 µM.

**Q.** And the TGI?
**A.** Its TGI is greater than 100 µM.

**Q.** Which TGI does the source give for Nc1ccc2nc3n(c2c1)C(=O)c1ccccc1-3 here?
**A.** The TGI was greater than 100 µM.

**Q.** For Cn1cc(-c2ccc(-c3cncc(Cl)c3N3CCC4(CCNC4=O)CC3)cc2)cn1, which GI50 is on record?
**A.** The GI50 was 38.5 µM.

**Q.** What about the TGI of the same molecule?
**A.** Its TGI is greater than 100 µM.

**Q.** Which TGI does the source give for CC/C=C/C/C=C/C/C=C/C/C=C/C/C=C/C/C=C/CCC(=O)Nc1ccn([C@@H]2O[C@H](CO)[C@@H](O)C2(F)F)c(=O)n1 here?
**A.** Its TGI is 17.2 µM.

**Q.** What does the source list for C/C(=N\NC(=S)N1CC2CCC(CC2)C1)c1ccccn1?
**A.** GI50: < 0.0145 µM; TGI: 1.44 µM

**Q.** With O=C(NCc1ccc(S(=O)(=O)c2cc(F)cc(F)c2)cc1)c1ccc2nccn2c1 as the molecule, how does the GI50 read?
**A.** Its GI50 is 8.69 µM.

**Q.** What about the TGI of the same molecule?
**A.** The TGI was greater than 100 µM.

**Q.** How did the GI50 turn out when NC(=S)N/N=C/c1cc(-c2cccc(N)c2)ccn1 was run?
**A.** The GI50 was 2 µM.

**Q.** What about the TGI of the same molecule?
**A.** The TGI was greater than 44.8 µM.

**Q.** Which TGI does the source give for Cc1nn(C(=O)c2ccc(Cl)cc2)c2c1C(c1ccc(O)cc1)SC(N)=N2 (stereo not drawn) here?
**A.** Its TGI is greater than 10 µM.
